The text below walks through data of ChEMBL document CHEMBL5678818, “Discovery of potent SOS1 inhibitors that block RAS activation via disruption of the RAS-SOS1 interaction” (Proc Natl Acad Sci U S A, 2019).

The target of assay [1] is 5'-AMP-activated protein kinase catalytic subunit alpha-1 (Homo sapiens) (UniProt Q13131). The experiment in a line: Inhibition of AMPK-alpha1 (unknown origin) assessed as residual activity at 100 nM by KINOMEscan analysis relative to control.
Assay [2] has as its target Calcium/calmodulin-dependent protein kinase type II subunit gamma (Homo sapiens) (UniProt Q13555). The experiment in a line: Inhibition of CAMK2G (unknown origin) assessed as residual activity at 100 nM by KINOMEscan analysis relative to control.
The target of assay [3] is T1, Ephrin type-A receptor 1 (Homo sapiens) (UniProt P21709).
T1 sequence (whole entry): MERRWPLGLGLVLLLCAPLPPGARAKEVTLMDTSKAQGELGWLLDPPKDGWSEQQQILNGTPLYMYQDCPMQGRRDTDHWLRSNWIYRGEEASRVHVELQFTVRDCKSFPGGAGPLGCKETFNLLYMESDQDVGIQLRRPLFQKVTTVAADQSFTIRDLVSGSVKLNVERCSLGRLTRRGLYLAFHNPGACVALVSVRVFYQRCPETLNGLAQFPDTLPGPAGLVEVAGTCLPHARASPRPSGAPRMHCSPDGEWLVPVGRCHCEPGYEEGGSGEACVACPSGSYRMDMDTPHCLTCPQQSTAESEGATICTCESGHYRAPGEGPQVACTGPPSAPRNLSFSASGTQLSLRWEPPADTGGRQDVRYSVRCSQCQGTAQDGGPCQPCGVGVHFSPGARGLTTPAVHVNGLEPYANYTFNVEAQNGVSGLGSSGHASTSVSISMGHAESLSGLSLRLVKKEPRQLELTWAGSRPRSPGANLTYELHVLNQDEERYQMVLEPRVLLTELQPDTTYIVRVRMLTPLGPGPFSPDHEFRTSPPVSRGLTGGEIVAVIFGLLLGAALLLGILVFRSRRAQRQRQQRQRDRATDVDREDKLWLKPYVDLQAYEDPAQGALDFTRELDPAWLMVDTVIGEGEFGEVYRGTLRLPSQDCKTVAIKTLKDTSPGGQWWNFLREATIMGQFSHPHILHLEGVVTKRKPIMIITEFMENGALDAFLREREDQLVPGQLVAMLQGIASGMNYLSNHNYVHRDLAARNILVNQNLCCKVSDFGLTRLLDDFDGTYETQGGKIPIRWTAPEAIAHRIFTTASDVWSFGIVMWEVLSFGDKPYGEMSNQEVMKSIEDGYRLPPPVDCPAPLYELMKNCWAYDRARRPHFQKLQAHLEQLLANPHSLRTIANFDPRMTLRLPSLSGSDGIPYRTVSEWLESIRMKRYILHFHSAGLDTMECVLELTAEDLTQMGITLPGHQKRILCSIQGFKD
As to the kind of experiment: Inhibition of EPHA1 (unknown origin) assessed as residual activity at 100 nM by KINOMEscan analysis relative to control.

Assay [4] relates to Receptor-type tyrosine-protein kinase FLT3 (Homo sapiens), P36888 [K663Q]. As to the kind of experiment: Inhibition of FLT3 K663Q mutant (unknown origin) assessed as residual activity at 100 nM by KINOMEscan analysis relative to control.
Assay [5] concerns the target LIM domain kinase 1 (Homo sapiens) (UniProt P53667). As to the kind of experiment: Inhibition of LIMK1 (unknown origin) assessed as residual activity at 100 nM by KINOMEscan analysis relative to control.
Assay [6] has as its target Serine/threonine-protein kinase MRCK alpha (Homo sapiens) (UniProt Q5VT25). As to the kind of experiment: Inhibition of MRCKA (unknown origin) assessed as residual activity at 100 nM by KINOMEscan analysis relative to control.
Assay [7] concerns the target Cyclin-dependent kinase 2 homolog (Plasmodium falciparum (isolate K1 / Thailand)) (UniProt Q07785). The experiment in a line: Inhibition of Plasmodium falciparum PK5 assessed as residual activity at 100 nM by KINOMEscan analysis relative to control.
In assay [8] the test system is Phosphatidylinositol 4,5-bisphosphate 3-kinase catalytic subunit alpha isoform (Homo sapiens), P42336 [C420R]. As to the kind of experiment: Inhibition of PIK3CA C420R mutant (unknown origin) assessed as residual activity at 100 nM by KINOMEscan analysis relative to control.
The target of assay [9] is Serine/threonine-protein kinase pim-1 (Homo sapiens) (UniProt P11309). The experiment in a line: Inhibition of PIM1 (unknown origin) assessed as residual activity at 100 nM by KINOMEscan analysis relative to control.
Serine/threonine-protein kinase pim-1 (Homo sapiens), sequence (P11309 whole entry, looked up): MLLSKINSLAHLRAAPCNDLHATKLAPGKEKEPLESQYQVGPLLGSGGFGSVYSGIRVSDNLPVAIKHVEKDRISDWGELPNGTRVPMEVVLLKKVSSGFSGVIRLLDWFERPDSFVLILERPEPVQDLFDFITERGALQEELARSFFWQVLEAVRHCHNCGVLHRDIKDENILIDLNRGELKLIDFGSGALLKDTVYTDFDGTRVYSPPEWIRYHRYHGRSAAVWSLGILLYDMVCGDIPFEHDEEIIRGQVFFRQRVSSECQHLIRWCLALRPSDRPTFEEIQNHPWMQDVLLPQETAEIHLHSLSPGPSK
Assay [10] addresses Protein kinase C delta type (Homo sapiens) (UniProt Q05655). The experiment in a line: Inhibition of PRKCD (unknown origin) assessed as residual activity at 100 nM by KINOMEscan analysis relative to control.
Assay [11] concerns the target Ribosomal protein S6 kinase alpha-5 (Homo sapiens) (UniProt O75582). The experiment in a line: Inhibition of C-terminal RPS6KA5 kinetic domain 2 (unknown origin) assessed as residual activity at 100 nM by KINOMEscan analysis relative to control.
Assay [12] concerns the target T2, Serine/threonine-protein kinase TBK1 (Homo sapiens) (UniProt Q9UHD2).
T2 sequence (whole entry): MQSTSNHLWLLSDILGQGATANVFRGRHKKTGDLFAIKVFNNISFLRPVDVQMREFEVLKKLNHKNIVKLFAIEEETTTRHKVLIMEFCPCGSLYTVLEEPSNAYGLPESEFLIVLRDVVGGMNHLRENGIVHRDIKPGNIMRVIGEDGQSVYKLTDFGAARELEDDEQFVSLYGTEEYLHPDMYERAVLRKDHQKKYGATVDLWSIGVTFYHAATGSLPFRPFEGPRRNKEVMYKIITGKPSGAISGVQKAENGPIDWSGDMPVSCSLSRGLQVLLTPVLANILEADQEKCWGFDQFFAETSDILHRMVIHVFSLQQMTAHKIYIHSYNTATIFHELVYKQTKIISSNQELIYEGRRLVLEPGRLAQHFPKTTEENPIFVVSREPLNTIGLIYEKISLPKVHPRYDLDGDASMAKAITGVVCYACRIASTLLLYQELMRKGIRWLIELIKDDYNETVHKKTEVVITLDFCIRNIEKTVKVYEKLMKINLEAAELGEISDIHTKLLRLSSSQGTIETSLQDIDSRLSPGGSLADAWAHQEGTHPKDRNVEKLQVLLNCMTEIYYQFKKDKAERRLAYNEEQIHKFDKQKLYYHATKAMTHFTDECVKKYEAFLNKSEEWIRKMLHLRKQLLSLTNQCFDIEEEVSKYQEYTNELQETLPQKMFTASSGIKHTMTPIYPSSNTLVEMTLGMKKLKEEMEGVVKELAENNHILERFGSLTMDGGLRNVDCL
The experiment in a line: Inhibition of TBK1 (unknown origin) assessed as residual activity at 100 nM by KINOMEscan analysis relative to control.

The target in assay [13] is Dual specificity testis-specific protein kinase 1 (Homo sapiens) (UniProt Q15569). The experiment in a line: Inhibition of TESK1 (unknown origin) assessed as residual activity at 100 nM by KINOMEscan analysis relative to control.
The target of assay [14] is TGF-beta receptor type-2 (Homo sapiens) (UniProt P37173). As to the kind of experiment: Inhibition of TGFBR2 (unknown origin) assessed as residual activity at 100 nM by KINOMEscan analysis relative to control.
TGF-beta receptor type-2 (Homo sapiens), sequence (P37173 whole entry): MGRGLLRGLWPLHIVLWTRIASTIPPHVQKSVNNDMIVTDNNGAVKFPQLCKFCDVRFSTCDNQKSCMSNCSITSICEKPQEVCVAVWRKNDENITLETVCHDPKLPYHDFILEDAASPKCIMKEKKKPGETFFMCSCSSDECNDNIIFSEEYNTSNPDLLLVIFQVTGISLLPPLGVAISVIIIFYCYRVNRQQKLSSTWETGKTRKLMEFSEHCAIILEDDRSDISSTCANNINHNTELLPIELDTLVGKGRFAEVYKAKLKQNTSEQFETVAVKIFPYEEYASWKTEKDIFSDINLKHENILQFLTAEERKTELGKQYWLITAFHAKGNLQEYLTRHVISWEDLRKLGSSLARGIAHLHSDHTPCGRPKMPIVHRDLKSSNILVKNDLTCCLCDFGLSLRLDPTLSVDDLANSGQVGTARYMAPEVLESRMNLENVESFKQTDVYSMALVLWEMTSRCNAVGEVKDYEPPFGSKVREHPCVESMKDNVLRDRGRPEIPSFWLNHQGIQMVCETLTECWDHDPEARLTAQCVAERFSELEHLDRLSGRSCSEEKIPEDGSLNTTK

Calcium/calmodulin-dependent protein kinase type II subunit gamma (Homo sapiens), sequence (Q13555 whole entry): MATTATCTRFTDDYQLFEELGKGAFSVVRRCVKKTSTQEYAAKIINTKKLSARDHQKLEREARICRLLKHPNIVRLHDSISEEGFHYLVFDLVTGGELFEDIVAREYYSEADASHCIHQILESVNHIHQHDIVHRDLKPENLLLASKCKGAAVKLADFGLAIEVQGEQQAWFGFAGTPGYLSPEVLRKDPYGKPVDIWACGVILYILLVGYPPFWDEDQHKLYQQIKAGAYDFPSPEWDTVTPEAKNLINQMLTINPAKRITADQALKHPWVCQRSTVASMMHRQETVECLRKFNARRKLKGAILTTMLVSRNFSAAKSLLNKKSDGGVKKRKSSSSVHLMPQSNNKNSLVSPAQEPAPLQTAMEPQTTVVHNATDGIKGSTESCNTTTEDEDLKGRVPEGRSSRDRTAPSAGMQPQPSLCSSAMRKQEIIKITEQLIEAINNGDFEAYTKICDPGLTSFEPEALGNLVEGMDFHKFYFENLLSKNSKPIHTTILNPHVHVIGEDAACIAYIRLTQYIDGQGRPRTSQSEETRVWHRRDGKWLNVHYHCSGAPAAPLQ
Ribosomal protein S6 kinase alpha-5 (Homo sapiens), sequence (O75582 whole entry, looked up, the tested form may be a part): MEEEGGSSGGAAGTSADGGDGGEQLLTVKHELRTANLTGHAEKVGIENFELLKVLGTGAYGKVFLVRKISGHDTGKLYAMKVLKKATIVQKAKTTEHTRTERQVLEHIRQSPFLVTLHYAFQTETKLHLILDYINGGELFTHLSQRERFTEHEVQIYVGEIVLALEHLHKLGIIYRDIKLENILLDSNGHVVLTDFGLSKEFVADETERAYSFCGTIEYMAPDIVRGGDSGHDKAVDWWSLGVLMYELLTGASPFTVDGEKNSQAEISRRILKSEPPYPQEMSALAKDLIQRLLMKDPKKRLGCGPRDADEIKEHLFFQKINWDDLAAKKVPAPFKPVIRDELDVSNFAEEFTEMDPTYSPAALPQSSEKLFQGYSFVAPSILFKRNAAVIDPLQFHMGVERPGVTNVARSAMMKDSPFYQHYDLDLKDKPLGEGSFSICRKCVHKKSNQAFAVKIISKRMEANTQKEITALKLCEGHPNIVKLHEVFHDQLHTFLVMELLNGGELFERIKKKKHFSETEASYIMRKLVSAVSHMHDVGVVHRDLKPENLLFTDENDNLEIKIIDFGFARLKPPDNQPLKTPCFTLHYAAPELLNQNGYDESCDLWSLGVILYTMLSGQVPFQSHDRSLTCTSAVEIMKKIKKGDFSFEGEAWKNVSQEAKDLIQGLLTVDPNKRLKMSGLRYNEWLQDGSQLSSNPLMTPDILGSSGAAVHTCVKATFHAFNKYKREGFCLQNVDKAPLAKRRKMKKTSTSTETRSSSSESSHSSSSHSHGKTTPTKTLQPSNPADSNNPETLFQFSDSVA
LIM domain kinase 1 (Homo sapiens), sequence (P53667 whole entry, looked up, the tested form may be a part): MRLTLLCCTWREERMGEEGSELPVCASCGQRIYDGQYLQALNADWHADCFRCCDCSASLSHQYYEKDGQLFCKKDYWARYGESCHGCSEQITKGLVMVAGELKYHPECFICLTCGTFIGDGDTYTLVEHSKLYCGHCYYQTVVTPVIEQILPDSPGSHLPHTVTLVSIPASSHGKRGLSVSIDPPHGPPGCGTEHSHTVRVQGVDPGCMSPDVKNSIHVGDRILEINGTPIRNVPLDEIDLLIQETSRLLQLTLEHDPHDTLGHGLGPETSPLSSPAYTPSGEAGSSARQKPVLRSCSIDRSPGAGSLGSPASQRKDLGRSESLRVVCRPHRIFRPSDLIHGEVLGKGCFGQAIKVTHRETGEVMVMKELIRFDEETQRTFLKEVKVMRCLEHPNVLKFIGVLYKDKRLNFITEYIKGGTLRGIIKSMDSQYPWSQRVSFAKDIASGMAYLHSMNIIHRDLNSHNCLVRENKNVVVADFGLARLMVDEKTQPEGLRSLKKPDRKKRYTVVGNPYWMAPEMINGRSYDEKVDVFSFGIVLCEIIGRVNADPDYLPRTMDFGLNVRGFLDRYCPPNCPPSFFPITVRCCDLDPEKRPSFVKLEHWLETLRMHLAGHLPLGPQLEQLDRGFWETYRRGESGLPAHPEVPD
Serine/threonine-protein kinase MRCK alpha (Homo sapiens), sequence (Q5VT25 whole entry): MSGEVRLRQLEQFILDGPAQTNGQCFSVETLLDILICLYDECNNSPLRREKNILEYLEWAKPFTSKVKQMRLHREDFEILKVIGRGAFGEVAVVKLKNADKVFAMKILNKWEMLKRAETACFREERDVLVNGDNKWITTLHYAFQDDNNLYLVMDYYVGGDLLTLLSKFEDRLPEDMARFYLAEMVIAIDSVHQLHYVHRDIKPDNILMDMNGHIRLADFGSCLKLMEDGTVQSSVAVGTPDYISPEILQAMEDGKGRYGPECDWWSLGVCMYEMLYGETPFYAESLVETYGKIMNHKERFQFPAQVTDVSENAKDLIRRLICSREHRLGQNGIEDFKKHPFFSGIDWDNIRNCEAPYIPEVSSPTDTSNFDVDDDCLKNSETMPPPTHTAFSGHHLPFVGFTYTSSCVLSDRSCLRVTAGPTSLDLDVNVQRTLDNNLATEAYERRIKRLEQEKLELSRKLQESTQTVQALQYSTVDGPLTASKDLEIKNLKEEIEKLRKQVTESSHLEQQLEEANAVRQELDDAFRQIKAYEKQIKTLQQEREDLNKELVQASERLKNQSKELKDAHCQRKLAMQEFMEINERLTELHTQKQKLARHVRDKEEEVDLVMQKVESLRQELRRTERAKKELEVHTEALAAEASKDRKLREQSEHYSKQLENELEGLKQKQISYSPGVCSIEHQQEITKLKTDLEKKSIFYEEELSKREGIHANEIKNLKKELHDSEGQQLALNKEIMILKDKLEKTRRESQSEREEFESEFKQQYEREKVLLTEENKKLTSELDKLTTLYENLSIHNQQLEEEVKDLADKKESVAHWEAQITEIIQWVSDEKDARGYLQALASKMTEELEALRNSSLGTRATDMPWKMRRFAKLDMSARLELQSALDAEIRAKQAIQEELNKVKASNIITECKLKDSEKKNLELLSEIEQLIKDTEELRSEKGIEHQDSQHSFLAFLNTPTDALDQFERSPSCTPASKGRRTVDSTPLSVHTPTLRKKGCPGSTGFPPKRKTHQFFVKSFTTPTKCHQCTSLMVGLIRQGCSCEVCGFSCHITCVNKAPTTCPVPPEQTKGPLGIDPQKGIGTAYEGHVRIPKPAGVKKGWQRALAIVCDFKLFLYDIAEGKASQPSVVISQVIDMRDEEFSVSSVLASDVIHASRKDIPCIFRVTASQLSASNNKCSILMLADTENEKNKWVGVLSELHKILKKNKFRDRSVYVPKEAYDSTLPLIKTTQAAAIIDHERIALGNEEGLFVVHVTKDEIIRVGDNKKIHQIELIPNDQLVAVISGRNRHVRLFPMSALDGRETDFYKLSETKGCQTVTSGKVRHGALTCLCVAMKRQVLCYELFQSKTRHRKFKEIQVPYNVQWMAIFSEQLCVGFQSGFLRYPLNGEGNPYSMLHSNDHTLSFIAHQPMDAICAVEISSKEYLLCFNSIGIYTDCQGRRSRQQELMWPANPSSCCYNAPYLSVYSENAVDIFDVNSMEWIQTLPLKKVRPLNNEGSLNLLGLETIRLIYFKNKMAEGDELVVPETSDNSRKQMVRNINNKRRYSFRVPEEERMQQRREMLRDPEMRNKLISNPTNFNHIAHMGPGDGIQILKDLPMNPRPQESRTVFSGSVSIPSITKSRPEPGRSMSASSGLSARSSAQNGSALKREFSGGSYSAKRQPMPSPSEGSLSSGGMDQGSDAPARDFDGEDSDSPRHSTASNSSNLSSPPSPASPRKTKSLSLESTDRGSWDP
Cyclin-dependent kinase 2 homolog (Plasmodium falciparum (isolate K1 / Thailand)), sequence (Q07785 whole entry, canonical isoform): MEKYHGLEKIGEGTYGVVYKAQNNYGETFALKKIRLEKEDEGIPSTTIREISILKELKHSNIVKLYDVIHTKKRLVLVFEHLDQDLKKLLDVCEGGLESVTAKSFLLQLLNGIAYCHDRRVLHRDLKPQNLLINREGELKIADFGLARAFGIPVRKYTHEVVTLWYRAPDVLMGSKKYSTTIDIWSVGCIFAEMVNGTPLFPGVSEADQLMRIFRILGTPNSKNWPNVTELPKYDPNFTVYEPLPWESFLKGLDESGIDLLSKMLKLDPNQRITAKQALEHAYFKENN

For `COc1cc2ncnc(N[C@H](C)c3cccc4ccccc34)c2cc1OC`, the Activity is 92% in assay [1]; 60% in assay [2]; 75% in [3]; 90% in assay [4]; 81% in assay [5]; 14% in assay [6]. Further, the Activity in [7] was determined as 100%; in assay [8] it was 90%; in [9], 89%; in [10], 100%; in [11] it was 52%; in assay [12] it was 96%. Moreover, the Activity came to 73% in [13] and 93% in [14].
